Assay results: patent publication US11873291B2, “Quinoline cGAS antagonist compounds” (ImmuneSensor Therapeutics, Inc., priority 2020, dated 2024)

Biological target: T1, recombinant human cGAS (aa147-522) (Homo sapiens, UniProt Q8N884)
T1 construct: recombinant human cGAS (aa147-522); His6-SUMO (cleaved yes); made in house; host or cells: E. coli BL21/pLys
Test: In vitro inhibition assay of cGAS activity (ATP consumption, KinaseGlo Max)
Type: biochemical
Details: Table 2, read-out: cGAS Inhibition Results IC50
In short: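 IC50 came from plotting % ATP consumption against log compound concentration, with leftover ATP detected by KinaseGlo Max chemiluminescence. Reactions ran 20 min at 37 °C with 1.5 μg/mL human cGAS (aa147-522), 6.6 μM ATP, 0.1 mM GTP and 0.01 mg/mL DNA at pH 7.5.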

T1 sequence (Q8N884 147-522): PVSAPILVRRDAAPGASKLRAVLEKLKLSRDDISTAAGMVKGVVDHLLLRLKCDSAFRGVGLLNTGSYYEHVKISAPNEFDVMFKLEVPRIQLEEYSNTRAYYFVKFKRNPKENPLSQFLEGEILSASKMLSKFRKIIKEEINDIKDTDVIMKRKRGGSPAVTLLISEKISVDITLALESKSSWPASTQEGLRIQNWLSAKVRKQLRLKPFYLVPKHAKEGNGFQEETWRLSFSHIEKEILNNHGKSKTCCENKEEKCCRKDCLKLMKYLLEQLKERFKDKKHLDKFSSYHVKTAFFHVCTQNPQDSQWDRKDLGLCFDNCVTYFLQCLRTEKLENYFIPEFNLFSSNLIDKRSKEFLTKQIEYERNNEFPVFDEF

IC50 [nM] | Structure (SMILES)
2000 to 30000 | CN(CCNC(=O)c1ccccc1)c1cc(-n2ccnc2)c2ccc(Cl)cc2n1 [I-237]
2000 to 30000 | Cc1cc(-c2cn[nH]c2)c2ccc(Cl)c(Cl)c2n1 [I-406, 7,8-dichloro-2-methyl-4-(1H-pyrazol-4-yl)quinoline]
> 30000 | O=C(O)c1ccc(Cl)c(-c2cc(-n3ccnc3)c3ccc(Cl)cc3n2)c1 [I-31]
> 30000 | Cc1cc(NC2CCCCC2C(=O)O)c2ccc(Cl)c(Cl)c2n1 (centres unmarked) [I-316]
> 30000 | Cc1cc(NC2CCNC2=O)c2ccc(Cl)c(Cl)c2n1 (centres unmarked) [I-315]
< 2000 | CC(C)N(CCS(=O)(=O)O)c1cc(-n2ccnc2)c2ccc(Cl)c(Cl)c2n1 [I-165]
2000 to 30000 | CC(C)[C@H](CC(=O)O)Nc1cc(-n2ccnc2)c2ccc(Cl)c(Cl)c2n1 [I-188]
> 30000 | Oc1ccc(-c2cc(-n3ccnc3)c3ccc(Cl)cc3n2)cn1 [I-58]
> 30000 | O=C1NCCC1Nc1cc(-n2ccnc2)c2ccc(Cl)cc2n1 (centres unmarked) [I-367]
> 30000 | Cc1cn(-c2cc(-c3ccccc3)nc3cc(Cl)ccc23)cn1 [I-60]
< 2000 | O=[PH](O)OCCCCNc1cc(-c2cn[nH]c2)c2ccc(Cl)c(Cl)c2n1 [I-258]
< 2000 | O=C(O)C[C@@H]1CCCN1c1cc(-c2cn[nH]c2)c2ccc(Cl)c(Cl)c2n1 [I-444]
> 30000 | COc1ccc2c(-c3cn[nH]c3)cc(NCCO)nc2c1 [I-377]
2000 to 30000 | CC(=O)OCC(=O)N1CCOC(CNc2cc(-c3cn[nH]c3)c3ccc(Cl)c(Cl)c3n2)C1 (centres unmarked) [I-400]
2000 to 30000 | O=C(O)C1CN(c2cc(-n3ccnc3)c3ccc(Cl)c(Cl)c3n2)CCN1C(=O)CO (centres unmarked) [I-83, 4-(7,8-dichloro-4-(1H-imidazol-1-yl)quinolin-2-yl)-1-(2-hydroxyacetyl)piperazine-2-carboxylic acid]
2000 to 30000 | O=C(O)CN(CCN1CCOCC1)c1cc(-n2ccnc2)c2ccc(Cl)c(Cl)c2n1 [I-172, N-(7,8-dichloro-4-(1H-imidazol-1-yl)quinoline-2-yl)-N-(2-morpholinoethyl)glycine]
2000 to 30000 | O=C(O)C[C@@H](Nc1cc(-n2ccnc2)c2ccc(Cl)c(Cl)c2n1)c1ccccc1 [I-189]
2000 to 30000 | Clc1ccc2c(-n3ccnc3)cc(Oc3ccccc3)nc2c1 [I-278]
> 30000 | COc1c(Cl)ccc2c(-c3cn[nH]c3)cc(NCCO)nc12 [I-403]
> 30000 | COC(=O)c1ccc(-c2cc(-n3ccnc3)c3ccc(Cl)cc3n2)cc1 [I-3]
< 2000 | OC[C@@H]1CN(c2cc(-c3cn[nH]c3)c3ccc(Cl)c(Cl)c3n2)CCO1 [I-372]

IC50 [nM] | Structure (SMILES)
> 30000 | CN(CCNS(=O)(=O)c1ccccc1)c1cc(-n2ccnc2)c2ccc(Cl)cc2n1 [I-227]
< 2000 | CN(CCN(C)S(N)(=O)=O)c1cc(-n2ccnc2)c2ccc(Cl)c(Cl)c2n1 [I-224]
2000 to 30000 | COc1c(Br)ccc2c(-n3ccnc3)cc(-c3ccccc3)nc12 [I-54, 7-bromo-4-(1H-imidazol-1-yl)-8-methoxy-2-phenylquinoline]
< 2000 | NS(=O)(=O)C1CCCN(c2cc(-c3cn[nH]c3)c3ccc(Cl)c(Cl)c3n2)C1 (centres unmarked) [I-373]
> 30000 | O=C1CN(c2cc(-c3cn[nH]c3)nc3c(Cl)c(Cl)ccc23)CCN1 [I-299]
< 2000 | O=C(O)CCN(CC(=O)O)c1cc(-n2ccnc2)c2ccc(Cl)c(Cl)c2n1 [I-175]
< 2000 | O=C(O)[C@@H]1C[C@@H](O)CN1c1cc(-c2cn[nH]c2)c2ccc(Cl)c(Cl)c2n1 [I-433]
> 30000 | NS(=O)(=O)CCNc1ccc2ccc(Cl)c(Cl)c2n1 [I-296]
> 30000 | Cc1cc(N(C)CC(N)=O)c2ccc(Cl)c(Cl)c2n1 [I-314]
2000 to 30000 | O=C(O)CNc1cc(-c2cn[nH]c2)c2ccc(Cl)c(Cl)c2n1 [I-177, (7,8-dichloro-4-(1H-pyrazol-4-yl)quinolin-2-yl)glycine]
2000 to 30000 | O=C(O)C1CCN(c2cc(-n3ccnc3)c3ccc(Cl)cc3n2)CC1 [I-127]
2000 to 30000 | O=C1CN(c2cc(-n3ccnc3)c3ccc(Cl)cc3n2)CC(C(=O)O)N1 (centres unmarked) [I-84]
> 30000 | O=C(O)c1ccccc1-c1cc(-n2ccnc2)c2ccc(Cl)cc2n1 [I-13]
> 30000 | O=C(O)c1cc2c(c(-c3cc(-n4ccnc4)c4ccc(Cl)cc4n3)c1)OCO2 [I-37]
> 30000 | Clc1ccc2c(-n3ccnc3)cc(NCCN3CCOCC3)nc2c1 [I-354]
2000 to 30000 | NC(=O)Nc1cccc(-c2cc(-n3ccnc3)c3ccc(Cl)cc3n2)c1 [I-11, 1-(3-(7-chloro-4-(1H-imidazol-1-yl)quinolin-2-yl)phenyl)urea]
< 2000 | CN(CCC(=O)N1CCC[C@H]1C(=O)O)c1cc(-c2cn[nH]c2)c2ccc(Cl)c(Cl)c2n1 [I-389]
2000 to 30000 | O=C1NC(=O)/C(=C\CCc2cc(-c3cn[nH]c3)c3ccc(Cl)c(Cl)c3n2)S1 [I-274, (E)-5-(3-(7,8-Dichloro-4-(1H-pyrazol-4-yl)quinolin-2-yl)propylidene)thiazolidine-2,4-dione]
> 30000 | Brc1ccc2nccc(-n3ccnc3)c2c1 [I-409]
> 30000 | O=C(O)c1ccccc1Oc1cc(-n2ccnc2)c2ccc(Cl)cc2n1 [I-283]
> 30000 | O=C(O)C1CCCCC1Nc1cc(-n2ccnc2)c2ccc(Cl)cc2n1 (centres unmarked) [I-333]

IC50 [nM] | Structure (SMILES)
2000 to 30000 | O=C(O)[C@@H]1CCCN1c1cc(-c2cn[nH]c2)nc2c(Cl)c(Cl)ccc12 [I-291]
2000 to 30000 | Brc1ccc2c(-n3ccnc3)ccnc2c1 [I-412]
< 2000 | CN(CCNS(C)(=O)=O)c1cc(-n2ccnc2)c2ccc(Cl)cc2n1 [I-234]
< 2000 | O=C(O)CNC(=O)C[C@@H]1CCCN1c1cc(-c2cn[nH]c2)c2ccc(Cl)c(Cl)c2n1 [I-326]
2000 to 30000 | CC(=O)OCC(=O)NC1CCCN(c2cc(-n3ccnc3)c3ccc(Cl)cc3n2)C1 (centres unmarked) [I-395, 2-((1-(7-chloro-4-(1H-imidazol-1-yl)quinolin-2-yl)piperidin-3-yl)amino)-2-oxoethyl acetate]
> 30000 | CN(C)C(=O)[C@@H]1CCCN1c1cc(-n2ccnc2)c2ccc(Cl)c(Cl)c2n1 [I-453]
2000 to 30000 | O=C(O)[C@H]1CCN1c1cc(-c2cn[nH]c2)c2ccc(Cl)c(Cl)c2n1 [I-359]
< 2000 | O=C(O)CCNC(=O)[C@@H]1CN(c2cc(-c3cn[nH]c3)c3ccc(Cl)c(Cl)c3n2)CCO1 [I-342]
2000 to 30000 | CN(CCC(=O)NCc1ccccc1)c1cc(-c2cn[nH]c2)c2ccc(Cl)c(Cl)c2n1 [I-193, N-benzyl-3-((7,8-dichloro-4-(1H-pyrazol-4-yl)quinolin-2-yl)(methyl)amino)propenamide]
> 30000 | Brc1ccc2c(-n3nccn3)ccnc2c1 [I-419]
< 2000 | O=S(=O)(O)C1CCCN(c2cc(-n3ccnc3)c3ccc(Cl)c(Cl)c3n2)C1 (centres unmarked) [I-115]
< 2000 | Oc1ccc(-c2cc(-n3ccnc3)c3ccc(Cl)c(Cl)c3n2)cc1 [I-47]
> 30000 | NS(=O)(=O)CCNc1cc(-c2cn[nH]c2)nc2ccc(C(F)(F)F)cc12 [I-301]
< 2000 | OC[C@@H]1C[C@@H](O)CN1c1cc(-n2ccnc2)c2ccc(Cl)c(Cl)c2n1 [I-142]
2000 to 30000 | O=c1[nH]c(=O)c2ccc(S(=O)(=O)NC[C@@H]3CCCN3c3cc(-n4ccnc4)c4ccc(Cl)c(Cl)c4n3)cc2[nH]1 [I-392]
< 2000 | O=C(CO)Nc1cc(C(=O)O)cc(-c2cc(-n3ccnc3)c3ccc(Cl)cc3n2)c1 [I-23, 3-(7-chloro-4-(1H-imidazol-1-yl)quinolin-2-yl)-5-(2-hydroxyacetamido)benzoic acid]
2000 to 30000 | Cc1cc(NCC(=O)O)c2ccc(Cl)c(Cl)c2n1 [I-293]
2000 to 30000 | COC(=O)C1CCCN(c2cc(-n3ccnc3)c3ccc(Cl)cc3n2)C1 (centres unmarked) [I-126]
> 30000 | Oc1cc(-c2cc(-n3ccnc3)c3ccc(Cl)cc3n2)ccn1 [I-59]

Same assay, conditions: Table 3, read-out: cGAS Inhibition Results IC50

IC50 [nM] | Structure (SMILES)
2000 to 30000 | O=C(O)C12CC1CCN2c1cc(-n2ccnc2)c2ccc(Cl)c(Cl)c2n1 (centres unmarked) [I-505]
2000 to 30000 | COC(=O)c1cccn1-c1cc(-n2ccnc2)c2ccc(Cl)c(Cl)c2n1 [I-458]
< 2000 | O=C(O)CO[C@@H]1CCN(c2cc(-n3ccnc3)c3ccc(Cl)c(Cl)c3n2)[C@@H]1C(=O)O [I-561]
> 30000 | O=C(O)CCOC[C@@H]1CCCN1c1cc(-n2ccnc2)c2ccc(Cl)c(-c3ccccc3)c2n1 [I-863, (S)-3-((1-(7-chloro-4-(1H-imidazol-1-yl)-8-phenylquinolin-2-yl)pyrrolidin-2-yl)methoxy)propanoic acid]
< 2000 | O=C(O)c1ccccc1S(=O)(=O)N[C@@H]1C[C@@H](C(=O)O)N(c2cc(-n3ccnc3)c3ccc(Cl)c(Cl)c3n2)C1 [I-509]
< 2000 | CN(CCNS(=O)(=O)CC(=O)O)c1cc(-n2ccnc2)c2ccc(Cl)c(Cl)c2n1 [I-618]
< 2000 | O=C1CC2CCC(C1)N2c1cc(-n2ccnc2)c2ccc(Cl)c(Cl)c2n1 [I-488]
2000 to 30000 | O=C(O)C1CCCN(C(=O)[C@@H]2CCCN2c2cc(-n3ccnc3)c3ccc(Cl)c(Cl)c3n2)C1 (some centres unmarked) [I-546]
2000 to 30000 | O=C(O)C1(c2ccccc2)CCCN1c1cc(-n2ccnc2)c2ccc(Cl)c(Cl)c2n1 (centres unmarked) [I-457]
< 2000 | O=C(O)CCOCC(CO)Nc1cc(-n2ccnc2)c2ccc(Cl)c(Cl)c2n1 (centres unmarked) [I-873]
< 2000 | O=C(O)CCNC(=O)[C@@H]1CN(c2cc(-n3ccnc3)c3ccc(Cl)c(Cl)c3n2)CCO1 [I-555]
2000 to 30000 | CN(CCCOc1ccc(Cl)cc1C(=O)O)c1cc(-n2ccnc2)c2ccc(Cl)c(Cl)c2n1 [I-847]
< 2000 | CN(CCS(=O)(=O)N1CCC(C(=O)O)C1)c1cc(-n2ccnc2)c2ccc(Cl)c(Cl)c2n1 (centres unmarked) [I-627]
< 2000 | O=C(NC[C@@H]1CCCN1c1cc(-n2ccnc2)c2ccc(Cl)c(Cl)c2n1)c1cc(O)no1 [I-641]
< 2000 | O=C(NO)[C@@H]1[C@@H](O)CCN1c1cc(-n2ccnc2)c2ccc(Cl)c(Cl)c2n1 [I-558]
< 2000 | CN(CCS(=O)(=O)NCC(=O)O)c1cc(-n2ccnc2)c2ccc(Cl)c(Cl)c2n1 [I-633]
